In data set [1] the test system is HIV-luc/Zaire EBOV-GP2014 pseudotype virus. The class given is cell-based, Ebola virus.
Data set [2] shares this test system. The class given is cell-based, Ebola virus. This is another data set of the same source.
For data set [3] the test system is unchanged. The class given is cell-based, Ebola virus. This is another data set of the same source.
Data set [4] has as its system envelope protein GP of Ebola virus (HIV-luc/EBOV-GP pseudotype virus). The class given is cell-based.
Data set [5] concerns HIV-luc/Zaire EBOV-GP2014 pseudotype virus. Format: cell-based, Ebola virus. This is another data set of the same source.
In data set [6] the test system is envelope G protein of vesicular stomatitis virus, VSV-G (HIV-luc/VSV-G pseudotype virus). The class given is cell-based.

pIC50: −log10 of the molar value. “Also recorded” adds a separate entry of the source.

In general, pIC50 refers to the negative decadic logarithm of the IC50, by convention in mol/L.

In the case of teicoplanin, the “inhibitory effect on virus in A549 cells” value in data set [1] is on record as “good inhibitory effect”. Further, the “inhibitory effect on virus in HUVECs” value in data set [2] is “good inhibitory effect”. Further, the “inhibitory effect on virus in THP-1 cells” value in data set [3] is given as “good inhibitory effect”. For the same substance, the “inhibitory effect on the envelope protein of Ebola virus, EBOV-GP (entry)” value in data set [4] is listed as “can inhibit the entry of Ebola virus; also recorded: good inhibitory effect”. Moreover, the pIC50 in data set [4] (read-out: IC50 of teicoplanin (inhibition of Ebola pseudovirus infecting 293T cells)) is 6.70. For the same substance, the “inhibitory effect on virus in Hela cells” value in data set [5] is “good inhibitory effect”. The “inhibitory effect on the envelope G protein of vesicular stomatitis virus, VSV-G” value in data set [6] is recorded as “no inhibitory effect”. Also, in the data set on 293T cells, the “cytotoxicity in 293T cells” value was “non-cytotoxic” and the “toxicity (FIG. 3, CC50 test)” value is given as “low”.

The values are drawn from patent publication US20180353568A1 (priority 2015, published 2018).
